Assay results as given in patent US10329309B2, “3-(3H-imidazo[4,5-B]pyridin-2-yl)-1H-pyrazolo[4,3-B]pyridines and therapeutic uses thereof” (Samumed, LLC, priority 2015, dated 2019).

Tested on: primary human fibroblasts derived from IPF patients (LL29 cells), α-smooth muscle actin (αSMA)
Assay: Inhibition of the fibrotic process: TGF-β1-treated primary human fibroblasts from IPF patients, αSMA staining
Type: cell-based
Conditions: Fibroblast, 96 h, 4 days; for EC50: LL29 fibroblasts from IPF patients, TGF-β1 20 ng/mL, inhibition of fibrotic process; for inhibition at 10 µM: LL29 fibroblasts, TGF-β1 treated, read-out: percent inhibition at 10 μM (given for EC50 of >10 μM)
Excerpt: Representative compounds were screened using primary human fibroblasts (derived from IPF patients) treated with TGF-β1 to determine their ability to inhibit the fibrotic process.
Primary human fibroblasts derived from IPF patients (LL29 cells) [^1Xiaoqiu Liu, et. al., “Fibrotic Lung Fibroblasts Show Blunted Inhibition by cAMP Due to Deficient cAMP Response Element-Binding Protein Phosphorylation”, Journal of Pharmacology and Experimental Therapeutics (2005), 315(2), 678-687; ^2Watts, K. L., et. al., “RhoA signaling modulates cyclin D1 expression in human lung fibroblasts; implications for idiopathic pulmonary fibrosis”, Respiratory Research (2006), 7(1), 88] were obtained from American Type Culture Collection (ATCC) and expanded in F12 medium supplemented with 15% Fetal Bovine Serum and Penicillin/Streptomycin.
Each compound was dissolved in DMSO as a 10 mM stock and used to prepare compound source plates. Serial dilution (1:2, 11-point dose-response curves from 10 μM to 1.87 nM) and compound transfer was performed using the ECHO 550 (Labcyte, Sunnyvale, Calif.) into 384-well clear bottom assay plates (Greiner Bio-One) with appropriate DMSO backfill for a final DMSO concentration of 0.1%. LL29 cells are plated at 1,500 cells/well in 80 μL/well F12 medium supplemented with 1% Fetal Bovine Serum. One hour after addition of the cells, TGF-β1 (Peprotech; 20 ng/mL) was added to the plates to induce fibrosis (ref. 1 and 2 above). Wells treated with TGF-β1 and containing DMSO were used as controls. Cells were incubated at 37° C. and 5% CO2 for 4 days. Following incubation for 4 days, SYTOX green nucleic acid stain (Life Technologies [Thermo Fisher Scientific]) was added to the wells at a final concentration of 1 μM and incubated at room temperature for 30 min. Cells were then fixed using 4% formaldehyde (Electron Microscopy Sciences), washed 3 times with PBS followed by blocking and permeabilization using 3% Bovine Serum Albumin (BSA; Sigma) and 0.3% Triton X-100 (Sigma) in PBS. Cells were then stained with antibody specific to α-smooth muscle actin (αSMA; Abcam) (ref. 1 and 2 above) in 3% Bovine Serum Albumin (BSA; Sigma) and 0.3% Triton X-100 (Sigma) in PBS, and incubated overnight at 4° C. Cells were then washed 3 times with PBS, followed by incubation with Alexa Flor-647 conjugated secondary antibody (Life Technologies [Thermo Fisher Scientific]) and DAPI at room temperature for 1 hour. Cells were then washed 3 times with PBS and plates were sealed for imaging. αSMA staining was imaged by excitation at 630 nm and emission at 665 nm and quantified using the Compartmental Analysis program on the CellInsight CX5 (Thermo Scientific). Dead or apoptotic cells were excluded from analysis based on positive SYTOX green staining. % of total cells positive for αSMA were counted in each well and normalized to the average of 11 wells treated with TGF-β1 on the same plate using Dotmatics' Studies Software. The normalized averages (fold change over untreated) of 3 replicate wells for each compound concentration were used to create dose-responses curves and EC50 values were calculated using non-linear regression curve fit in the Dotmatics' Studies Software. For EC50 of >10 μM, the percent inhibition at 10 μM is provided.

## COc1cncc(-c2ccc3[nH]nc(-c4nc5c(N6CCCCC6)ccnc5[nH]4)c3n2)c1 [Compound 612, 5-(5-Methoxypyridin-3-yl)-3-(7-(piperidin-1-yl)-3H-imidazo[4,5-b]pyridin-2-yl)-1H-pyrazolo[4,3-b]pyridine]
  EC50: > 10 µM
  inhibition at 10 µM: 30.3%

## Cn1cc(-c2ccc3[nH]nc(-c4nc5c(N6CCCCC6)ccnc5[nH]4)c3n2)c(CO)n1 [Compound 1134, (1-Methyl-4-(3-(7-(piperidin-1-yl)-3H-imidazo[4,5-b]pyridin-2-yl)-1H-pyrazolo[4,3-b]pyridin-5-yl)-1H-pyrazol-3-yl)methanol]
  EC50: 0.149 µM

## c1ccc(COc2cncc(-c3ccc4[nH]nc(-c5nc6c(-c7ccncc7)ccnc6[nH]5)c4n3)c2)cc1 [Compound 582, 5-(5-(Benzyloxy)pyridin-3-yl)-3-(7-(pyridin-4-yl)-3H-imidazo[4,5-b]pyridin-2-yl)-1H-pyrazolo[4,3-b]pyridine]
  EC50: 0.648 µM

## c1cnc2[nH]c(-c3n[nH]c4ccc(-c5cn[nH]c5)nc34)nc2c1 [Compound 651, 3-(3H-Imidazo[4,5-b]pyridin-2-yl)-5-(1H-pyrazol-4-yl)-1H-pyrazolo[4,3-b]pyridine]
  EC50: > 10 µM
  inhibition at 10 µM: 28.6%

## Cn1cc(-c2ccc3[nH]nc(-c4nc5c(-c6cc(F)cc(CNS(C)(=O)=O)c6)ccnc5[nH]4)c3n2)cn1 [Compound 764, N-(3-Fluoro-5-(2-(5-(1-methyl-1H-pyrazol-4-yl)-1H-pyrazolo[4,3-b]pyridin-3-yl)-3H-imidazo[4,5-b]pyridin-7-yl)benzyl)methanesulfonamide]
  EC50: > 10 µM
  inhibition at 10 µM: 26.8%

## c1cc(-c2ccc3c(c2)OCO3)c2nc(-c3n[nH]c4ccc(C5CCNCC5)nc34)[nH]c2n1 [Compound 1108, 3-(7-(Benzo[d][1,3]dioxol-5-yl)-3H-imidazo[4,5-b]pyridin-2-yl)-5-(piperidin-4-yl)-1H-pyrazolo[4,3-b]pyridine]
  EC50: > 10 µM
  inhibition at 10 µM: 0%

## Cc1ccc(-c2ccnc3[nH]c(-c4n[nH]c5ccc(-c6cncc(NC(=O)C7CCCC7)c6)nc45)nc23)s1 [Compound 414, N-(5-(3-(7-(5-Methylthiophen-2-yl)-3H-imidazo[4,5-b]pyridin-2-yl)-1H-pyrazolo[4,3-b]pyridin-5-yl)pyridin-3-yl)cyclopentanecarboxamide]
  EC50: 0.066 µM

## Cc1cn(-c2ccnc3[nH]c(-c4n[nH]c5ccc(-c6cncc(OCCN(C)C)c6)nc45)nc23)cn1 [Compound 627, N,N-Dimethyl-2-((5-(3-(7-(4-methyl-1H-imidazol-1-yl)-3H-imidazo[4,5-b]pyridin-2-yl)-1H-pyrazolo[4,3-b]pyridin-5-yl)pyridin-3-yl)oxy)ethan-1-amine]
  EC50: 4.8 µM

## CS(=O)(=O)NCc1cc(F)cc(-c2ccnc3[nH]c(-c4n[nH]c5ccc(-c6cncnc6)nc45)nc23)c1 [Compound 503, N-(3-Fluoro-5-(2-(5-(pyrimidin-5-yl)-1H-pyrazolo[4,3-b]pyridin-3-yl)-3H-imidazo[4,5-b]pyridin-7-yl)benzyl)methanesulfonamide]
  EC50: > 10 µM
  inhibition at 10 µM: 0%

## CN1CCN(c2ccnc3[nH]c(-c4n[nH]c5ccc(-c6cncc(OC7CCCCC7)c6)nc45)nc23)CC1 [Compound 639, 5-(5-(Cyclohexyloxy)pyridin-3-yl)-3-(7-(4-methylpiperazin-1-yl)-3H-imidazo[4,5-b]pyridin-2-yl)-1H-pyrazolo[4,3-b]pyridine]
  EC50: 3.27 µM

## COc1cccc(-c2ccnc3[nH]c(-c4n[nH]c5ccc(-c6cncc(O)c6)nc45)nc23)c1 [Compound 1030, 5-(3-(7-(3-Methoxyphenyl)-3H-imidazo[4,5-b]pyridin-2-yl)-1H-pyrazolo [4,3-b]pyridin-5-yl)pyridin-3-ol]
  EC50: > 10 µM
  inhibition at 10 µM: 48%

## COc1cncc(-c2ccc3[nH]nc(-c4nc5c(-c6ccoc6)ccnc5[nH]4)c3n2)c1 [Compound 692, 3-(7-(Furan-3-yl)-3H-imidazo[4,5-b]pyridin-2-yl)-5-(5-methoxypyridin-3-yl)-1H-pyrazolo[4,3-b]pyridine]
  EC50: 1.32 µM

## CN(C)CCNc1cc(F)cc(-c2ccnc3[nH]c(-c4n[nH]c5ccc(-c6ccccn6)nc45)nc23)c1 [Compound 476, N^1-(3-Fluoro-5-(2-(5-(pyridin-2-yl)-1H-pyrazolo[4,3-b]pyridin-3-yl)-3H-imidazo[4,5-b]pyridin-7-yl)phenyl)-N^2,N^2-dimethylethane-1,2-diamine]
  EC50: 4.41 µM

## O=C(Nc1cncc(-c2ccc3[nH]nc(-c4nc5c(-c6cccc(F)c6)ccnc5[nH]4)c3n2)c1)C1CC1 [Compound 20, N-(5-(3-(7-(3-Fluorophenyl)-3H-imidazo[4,5-b]pyridin-2-yl)-1H-pyrazolo [4,3-b]pyridin-5-yl)pyridin-3-yl)cyclopropanecarboxamide]
  EC50: > 10 µM
  inhibition at 10 µM: 20.2%

## c1cncc(-c2ccnc3[nH]c(-c4n[nH]c5ccc(-c6cncc(OC7CCCCC7)c6)nc45)nc23)c1 [Compound 559, 5-(5-(Cyclohexyloxy)pyridin-3-yl)-3-(7-(pyridin-3-yl)-3H-imidazo[4,5-b]pyridin-2-yl)-1H-pyrazolo[4,3-b]pyridine]
  EC50: 5.18 µM

## O=C(Cc1ccccc1)Nc1cncc(-c2ccc3[nH]nc(-c4nc5cccnc5[nH]4)c3n2)c1 [Compound 262, N-(5-(3-(3H-imidazo[4,5-b]pyridin-2-yl)-1H-pyrazolo[4,3-b]pyridin-5-yl)pyridin-3-yl)-2-phenylacetamide]
  EC50: > 10 µM
  inhibition at 10 µM: 0%

## CN1CCN(c2ccnc3[nH]c(-c4n[nH]c5ccc(-c6cncc(NC(=O)C7CCCC7)c6)nc45)nc23)CC1 [Compound 246, N-(5-(3-(7-(4-Methylpiperazin-1-yl)-3H-imidazo[4,5-b]pyridin-2-yl)-1H-pyrazolo[4,3-b]pyridin-5-yl)pyridin-3-yl)cyclopentanecarboxamide]
  EC50: 2.24 µM

## CS(=O)(=O)NCc1cc(F)cc(-c2ccnc3[nH]c(-c4n[nH]c5ccc(-c6cncc(NC(=O)c7ccccc7)c6)nc45)nc23)c1 [Compound 487, N-(5-(3-(7-(3-Fluoro-5-(methylsulfonamidomethyl)phenyl)-3H-imidazo[4,5-b]pyridin-2-yl)-1H-pyrazolo[4,3-b]pyridin-5-yl)pyridin-3-yl)benzamide]
  EC50: > 10 µM
  inhibition at 10 µM: 0%

## c1cc(-c2ccnc3[nH]c(-c4n[nH]c5ccc(-c6cnccn6)nc45)nc23)ccn1 [Compound 584, 5-(Pyrazin-2-yl)-3-(7-(pyridin-4-yl)-3H-imidazo[4,5-b]pyridin-2-yl)-1H-pyrazolo[4,3-b]pyridine]
  EC50: > 10 µM
  inhibition at 10 µM: 4.5%

## CC(C)(C)CC(=O)Nc1cncc(-c2ccc3[nH]nc(-c4nc5cccnc5[nH]4)c3n2)c1 [Compound 268, N-(5-(3-(3H-Imidazo[4,5-b]pyridin-2-yl)-1H-pyrazolo[4,3-b]pyridin-5-yl)pyridin-3-yl)-3,3-dimethylbutanamide]
  EC50: 7.2 µM

## O=C(CC1CCNCC1)Nc1cncc(-c2ccc3[nH]nc(-c4nc5c(-c6ccccn6)ccnc5[nH]4)c3n2)c1 [Compound 593, 2-(Piperidin-4-yl)-N-(5-(3-(7-(pyridin-2-yl)-3H-imidazo[4,5-b]pyridin-2-yl)-1H-pyrazolo[4,3-b]pyridin-5-yl)pyridin-3-yl)acetamide]
  EC50: 0.913 µM

## c1cc(-c2ccnc3[nH]c(-c4n[nH]c5ccc(-c6cncc(OC7CCNCC7)c6)nc45)nc23)ccn1 [Compound 576, 5-(5-(Piperidin-4-yloxy)pyridin-3-yl)-3-(7-(pyridin-4-yl)-3H-imidazo[4,5-b]pyridin-2-yl)-1H-pyrazolo[4,3-b]pyridine]
  EC50: 4.07 µM

## COc1cccc(-c2ccnc3[nH]c(-c4n[nH]c5ccc(-c6cncc(OC7CCNCC7)c6)nc45)nc23)c1 [Compound 1025, 3-(7-(3-Methoxyphenyl)-3H-imidazo[4,5-b]pyridin-2-yl)-5-(5-(piperidin-4-yloxy)pyridin-3-yl)-1H-pyrazolo[4,3-b]pyridine]
  EC50: 2.91 µM
